Data as given in ChEMBL document CHEMBL2057073, “Synthesis and structure-activity relationship studies of 1,3-disubstituted 2-propanols as BACE-1 inhibitors” (Bioorg Med Chem Lett, 2012).
Blank lines part the entries; values can stand above or below the molecule they belong to.

Columns and labels:
Beta-secretase 1 [1] = biological target: T1, Beta-secretase 1 (Homo sapiens, UniProt P56817); assay: Inhibition of BACE1 by FRET assay
Cathepsin D = Cathepsin D (Homo sapiens, UniProt P07339); assay: Inhibition of cathepsin D by FRET assay
Cathepsin D, sequence (P07339 65-162 limits assumed): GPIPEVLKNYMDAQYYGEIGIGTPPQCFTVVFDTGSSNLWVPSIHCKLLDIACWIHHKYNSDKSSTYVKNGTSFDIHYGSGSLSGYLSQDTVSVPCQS
Cathepsin D, sequence (P07339 169-412 limits assumed): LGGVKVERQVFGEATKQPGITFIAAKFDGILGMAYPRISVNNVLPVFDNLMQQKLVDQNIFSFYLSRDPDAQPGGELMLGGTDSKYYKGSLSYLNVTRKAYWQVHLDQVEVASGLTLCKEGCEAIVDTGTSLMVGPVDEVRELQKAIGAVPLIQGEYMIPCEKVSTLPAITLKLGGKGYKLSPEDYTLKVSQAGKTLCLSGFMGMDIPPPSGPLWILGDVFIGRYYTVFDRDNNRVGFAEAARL

Beta-secretase 1 [2] = biological target: T1, Beta-secretase 1; assay: Inhibition of BACE1 at 100 uM by FRET assay
Beta-secretase 1 [3] = biological target: T1, Beta-secretase 1; assay: Inhibition of BACE1 at 50 uM by FRET assay
Beta-secretase 1 [4] = biological target: T1, Beta-secretase 1; assay: Inhibition of BACE1 at 25 uM by FRET assay
Homo sapiens = species: Homo sapiens; assay: Selectivity ratio of IC50 for cathepsin D to IC50 for BACE1

T1 sequence (P56817 whole entry): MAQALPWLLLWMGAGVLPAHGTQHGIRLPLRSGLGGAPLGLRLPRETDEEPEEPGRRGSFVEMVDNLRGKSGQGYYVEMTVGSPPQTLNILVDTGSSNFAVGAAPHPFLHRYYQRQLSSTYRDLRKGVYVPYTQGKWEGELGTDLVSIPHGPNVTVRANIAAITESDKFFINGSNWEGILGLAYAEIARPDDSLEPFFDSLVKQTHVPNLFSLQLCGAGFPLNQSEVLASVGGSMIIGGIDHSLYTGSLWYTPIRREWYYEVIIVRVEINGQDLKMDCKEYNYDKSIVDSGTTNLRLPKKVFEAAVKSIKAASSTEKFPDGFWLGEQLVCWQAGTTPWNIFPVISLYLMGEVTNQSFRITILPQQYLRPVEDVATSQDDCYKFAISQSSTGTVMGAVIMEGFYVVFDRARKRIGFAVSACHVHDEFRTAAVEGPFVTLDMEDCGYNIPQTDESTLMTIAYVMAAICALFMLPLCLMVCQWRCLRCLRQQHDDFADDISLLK

SMILES: COc1ccc(SCC(O)Cn2c3c(c4ccccc42)CCCC3)cc1 (stereo not drawn)
inhibition (Beta-secretase 1 [2]): 87%
inhibition (Beta-secretase 1 [3]): 90%
inhibition (Beta-secretase 1 [4]): 58%
IC50 (Beta-secretase 1 [1]): 15.2 µM

SMILES: OC(CSc1ccccc1F)Cn1c2c(c3ccccc31)CCCC2 (stereo not drawn)
inhibition (Beta-secretase 1 [2]): 95%
inhibition (Beta-secretase 1 [3]): 86%
inhibition (Beta-secretase 1 [4]): 68%
IC50 (Beta-secretase 1 [1]): 11 µM

SMILES: Oc1ccc(SCC(O)COc2ccc(Cc3ccccc3)cc2)cc1 (stereo not drawn)
inhibition (Beta-secretase 1 [2]): 94%
inhibition (Beta-secretase 1 [3]): 100%
inhibition (Beta-secretase 1 [4]): 85%
IC50 (Beta-secretase 1 [1]): 10.7 µM

SMILES: OC(COc1ccc(Cc2ccccc2)cc1)CSc1ccccc1Cl (stereo not drawn)
inhibition (Beta-secretase 1 [2]): 81%
inhibition (Beta-secretase 1 [3]): 73%
inhibition (Beta-secretase 1 [4]): 62%
IC50 (Beta-secretase 1 [1]): 9.6 µM
IC50 (Cathepsin D): > 300 µM

SMILES: OC(CSc1ccc2ccccc2c1)Cn1ccc2ccccc21 (stereo not drawn)
IC50 (Beta-secretase 1 [1]): 10.5 µM

SMILES: Oc1ccc(SCC(O)Cn2c(-c3ccccc3)cc3ccccc32)cc1 (stereo not drawn)
inhibition (Beta-secretase 1 [2]): 86%
inhibition (Beta-secretase 1 [3]): 77%
inhibition (Beta-secretase 1 [4]): 72%
IC50 (Beta-secretase 1 [1]): 13.6 µM

SMILES: Cc1ccccc1SCC(O)Cn1c2c(c3ccccc31)CCC2 (stereo not drawn)
inhibition (Beta-secretase 1 [2]): 92%
inhibition (Beta-secretase 1 [3]): 89%
inhibition (Beta-secretase 1 [4]): 73%
IC50 (Beta-secretase 1 [1]): 21.4 µM

SMILES: OC(CSc1ccc2ccccc2c1)Cn1c(-c2ccccc2)cc2ccccc21 (stereo not drawn)
IC50 (Beta-secretase 1 [1]): 6.66 µM
IC50 (Cathepsin D): > 300 µM
Ratio IC50 (Homo sapiens): 50

SMILES: OC(CCn1c2ccccc2c2ccccc21)Cn1c2ccccc2c2ccccc21 (stereo not drawn)
IC50 (Beta-secretase 1 [1]): > 100 µM

SMILES: CCc1cccc2ccn(CC(O)CSc3ccccc3Cl)c12 (stereo not drawn)
inhibition (Beta-secretase 1 [2]): 99%
inhibition (Beta-secretase 1 [3]): 87%
inhibition (Beta-secretase 1 [4]): 65%
IC50 (Beta-secretase 1 [1]): 7.52 µM
IC50 (Cathepsin D): > 300 µM

SMILES: CCc1ccccc1SCC(O)Cn1c(-c2ccccc2)cc2ccccc21 (stereo not drawn)
inhibition (Beta-secretase 1 [2]): 80%
inhibition (Beta-secretase 1 [3]): 72%
inhibition (Beta-secretase 1 [4]): 60%
IC50 (Beta-secretase 1 [1]): 10.3 µM

SMILES: OC(CSc1ccccc1Cl)Cn1c2c(c3ccccc31)CCCC2 (stereo not drawn)
inhibition (Beta-secretase 1 [2]): 92%
inhibition (Beta-secretase 1 [3]): 99%
inhibition (Beta-secretase 1 [4]): 68%
IC50 (Beta-secretase 1 [1]): 8.28 µM
IC50 (Cathepsin D): > 300 µM

SMILES: OC(CSc1ccc2ccccc2c1)CSc1ccc2ccccc2c1
IC50 (Beta-secretase 1 [1]): > 30 µM

SMILES: OC(Cn1c2ccccc2c2ccccc21)Cn1c2ccccc2c2ccccc21
IC50 (Beta-secretase 1 [1]): 0.71 µM
IC50 (Cathepsin D): > 300 µM
Ratio IC50 (Homo sapiens): > 422

SMILES: OC(CSc1ccccc1F)Cn1c2ccccc2c2ccccc21 (stereo not drawn)
inhibition (Beta-secretase 1 [2]): 89%
inhibition (Beta-secretase 1 [3]): 84%
inhibition (Beta-secretase 1 [4]): 67%
IC50 (Beta-secretase 1 [1]): 5.36 µM
IC50 (Cathepsin D): > 300 µM

SMILES: COc1ccc(SCC(O)Cn2c3ccccc3c3ccccc32)c(OC)c1 (stereo not drawn)
inhibition (Beta-secretase 1 [2]): 80%
inhibition (Beta-secretase 1 [3]): 69%
inhibition (Beta-secretase 1 [4]): 22%

SMILES: OC(CSc1nnnn1-c1ccccc1)Cn1c2c(c3ccccc31)CCC2 (stereo not drawn)
inhibition (Beta-secretase 1 [2]): 87%
inhibition (Beta-secretase 1 [3]): 76%
inhibition (Beta-secretase 1 [4]): 37%

SMILES: OC(CSc1ccccc1)Cn1c2c(c3ccccc31)CCC2 (stereo not drawn)
inhibition (Beta-secretase 1 [2]): 85%
inhibition (Beta-secretase 1 [3]): 64%
inhibition (Beta-secretase 1 [4]): 35%

SMILES: CCc1ccc(SCC(O)Cn2ccc3cccc(CC)c32)cc1 (stereo not drawn)
inhibition (Beta-secretase 1 [2]): 92%
inhibition (Beta-secretase 1 [3]): 61%
inhibition (Beta-secretase 1 [4]): 38%

SMILES: COc1ccc(SCC(O)Cn2c(C)c(C)c3ccccc32)c(OC)c1 (stereo not drawn)
inhibition (Beta-secretase 1 [2]): 83%
inhibition (Beta-secretase 1 [3]): 37%
inhibition (Beta-secretase 1 [4]): 0%

SMILES: Oc1ccccc1SCC(O)Cn1c(-c2ccccc2)cc2ccccc21 (stereo not drawn)
inhibition (Beta-secretase 1 [2]): 86%
inhibition (Beta-secretase 1 [3]): 102%
inhibition (Beta-secretase 1 [4]): 87%
IC50 (Beta-secretase 1 [1]): 25.4 µM

Second part, the molecule after the results:

IC50 (Beta-secretase 1 [1]): 7.98 µM
IC50 (Cathepsin D): > 300 µM
SMILES: O[C@@H](CSc1ccc2ccccc2c1)Cn1c2ccccc2c2ccccc21

IC50 (Beta-secretase 1 [1]): 10.1 µM
SMILES: OC(CSc1ccc2ccccc2c1)C(O)Cn1c2ccccc2c2ccccc21 (stereo not drawn)

IC50 (Beta-secretase 1 [1]): 6.74 µM
IC50 (Cathepsin D): > 300 µM
SMILES: OC(CCSc1ccc2ccccc2c1)Cn1c2ccccc2c2ccccc21 (stereo not drawn)

IC50 (Beta-secretase 1 [1]): 7.52 µM
IC50 (Cathepsin D): > 300 µM
SMILES: c1ccc2cc(SCCCn3c4ccccc4c4ccccc43)ccc2c1

IC50 (Beta-secretase 1 [1]): 4.31 µM
IC50 (Cathepsin D): > 300 µM
SMILES: OC(CCn1c2ccccc2c2ccccc21)CSc1ccc2ccccc2c1 (stereo not drawn)

IC50 (Beta-secretase 1 [1]): > 50 µM
SMILES: c1ccc2cc(SCC(Cn3c4ccccc4c4ccccc43)N3CCNCC3)ccc2c1 (racemic)

IC50 (Beta-secretase 1 [1]): 15.7 µM
SMILES: NC(CSc1ccc2ccccc2c1)Cn1c2ccccc2c2ccccc21 (racemic)

inhibition (Beta-secretase 1 [2]): 76%
inhibition (Beta-secretase 1 [3]): 74%
inhibition (Beta-secretase 1 [4]): 64%
IC50 (Beta-secretase 1 [1]): 4.93 µM
IC50 (Cathepsin D): > 300 µM
Ratio IC50 (Homo sapiens): 50
SMILES: OC(CSc1ccc2ccccc2c1)Cn1c2ccccc2c2ccccc21 (stereo not drawn)

IC50 (Beta-secretase 1 [1]): 8.82 µM
IC50 (Cathepsin D): > 300 µM
SMILES: OC(Cn1c2ccccc2c2ccccc21)C(O)Cn1c2ccccc2c2ccccc21 (stereo not drawn)

IC50 (Beta-secretase 1 [1]): 7.38 µM
IC50 (Cathepsin D): > 300 µM
SMILES: NCCNC(CSc1ccc2ccccc2c1)Cn1c2ccccc2c2ccccc21 (racemic)

inhibition (Beta-secretase 1 [2]): 100%
inhibition (Beta-secretase 1 [3]): 87%
inhibition (Beta-secretase 1 [4]): 69%
IC50 (Beta-secretase 1 [1]): 36.1 µM
SMILES: Nc1cccc(SCC(O)Cn2c3ccccc3c3ccccc32)c1 (stereo not drawn)

inhibition (Beta-secretase 1 [2]): 86%
inhibition (Beta-secretase 1 [3]): 85%
inhibition (Beta-secretase 1 [4]): 79%
SMILES: OC(CSc1ccccc1)Cn1c2ccccc2c2ccccc21 (stereo not drawn)

IC50 (Beta-secretase 1 [1]): 5.39 µM
IC50 (Cathepsin D): > 300 µM
SMILES: O[C@H](CSc1ccc2ccccc2c1)Cn1c2ccccc2c2ccccc21

IC50 (Beta-secretase 1 [1]): > 80 µM
SMILES: O=C(CSc1ccc2ccccc2c1)Cn1c2ccccc2c2ccccc21
